The values that follow come from patent US8993637B2 (priority 2013, dated 2015).

The subject of assay [1] is renal apoptosis; caspase-3, caspase-8, caspase-9, Bax/Bcl-2. The experiment in a line: Mouse FSGS model: renal apoptosis (TUNEL), caspases, Bax/Bcl-2 ratio. It is filed as in vivo. Here is the method:
A progressive type of mouse FSGS model was used, particularly characterized by EPHLs, a key histopathology index of progression of FSGS, peri-glomerular inflammation, and progressive glomerular hyalinosis/sclerosis. The FSGS model was induced in 8-week-old male BALB/c mice (National Laboratory Animal Center, Taipei, Taiwan) by intravenous injection of a single dose of adriamycin (0.10 mg/10 g body weight) (Pfizer, New York, N.Y.) as described previously. […] Age- and sex-matched BALB/c mice were used as normal controls. Urine samples were collected in metabolic cages on days 3, 7, 14, 21, and 28. Renal cortical tissues and blood samples were collected when the mice were sacrificed and stored appropriately for further analysis. The concentration of urine protein was determined using BCA kits (Pierce, Rockford, Ill.) as described previously and normalized to urine creatinine (Cr) levels measured using kits (Wako Pure Chemical Industries, Osaka, Japan), as described previously. Serum levels of blood urea nitrogen (BUN) and Cr were determined using BUN kits and Cr kits (both from Fuji Dry-Chem Slide, Fuji Film Medical, Tokyo, Japan), as described previously.
Renal tissues were formalin-fixed, embedded in paraffin, and sections (4 μm) prepared and stained with hematoxylin and eosin (H&E) for renal histopathology as described previously or TUNEL stained for apoptosis as described previously. Renal pathology was examined and renal lesions scored as described previously. For EPHLs and sclerosis, at least 50 glomeruli in sections were examined for each mouse. To detect apoptosis in renal tissues, TUNEL staining was performed using an in situ apoptosis detection kit (Chemicon, Temecula, Calif.) according to the manufacturer's instructions. For immunohistochemistry, methyl Carnoy solution-fixed and paraffin-embedded renal sections were prepared and incubated with goat antibodies against mouse collagen IV (Col-IV) (Southern Biotech, AL) or rabbit antibodies against phosphorylated mouse NF-κB p65 (Cell Signaling Technology, MA), F4/80 (Serotec, Raleigh, N.C.), or CD3 (Serotec), then with horseradish-conjugated rabbit anti-goat IgG antibodies or swine anti-rabbit IgG antibodies (both from Dako, Carpinteria, Calif.). Quantitative image analysis software (Pax-it; Paxcam, VIIIa Park, Ill.) was used to score Col-IV staining and the number of phosphorylated NF-κB p65-, CD3-, F4/80-, or TUNEL-positive cells as described previously.
Cytoplasmic and nuclear proteins from renal tissues were prepared using a kit (Active Motif, Tokyo, Japan) according to the manufacturer's instructions and target proteins detected by immunoblotting using goat antibodies against mouse Nrf2 or p47^phox, (Santa Cruz Biotechnology, Santa Cruz, Calif.) or rabbit antibodies against mouse NQO1 (Abcam), caspase-3, caspase-8, or caspase-9 (all from Cell Signaling Technology, MA) or Bcl2 or Bax (both from Santa Cruz Biotechnology), then with horseradish-conjugated rabbit anti-goat IgG antibodies or goat-anti-rabbit IgG antibodies (both from Santa Cruz Biotechnology) as described previously. Anti-β-actin antibody (Santa Cruz Biotechnology) was used as internal controls for the nuclear and cytosolic target proteins, respectively. Renal HO-1 levels were measured using a commercial ELISA kit (R&D Systems, Minneapolis, Minn.) according to the manufacturer's instructions.

Assay [2] deals with NF-κB in RAW-Blue cells. The experiment in a line: NF-κB reporter assay (secreted embryonic alkaline phosphatase, QUANTI-Blue). The assay is classed as cell-based, murine. As to conditions: 30 min preincubation, then 24 h LPS 1 μg/ml. Here is the method:
ROS production was measured as the relative fluorescence intensity. […] The data are expressed as the mean±SD for three separate experiments. *p<0.05, **p<0.01 compared to the LPS-treated group. RAW-Blue™ cells (Murine macrophages RAW264.7 stably transfected with the NF-κB reporter gene) purchased from InvivoGen (San Diego, Calif.). LPS (from Escherichia coli 0111:B4) and mouse antibodies against phospho-ERK1/2, phospho-JNK1/2, and phospho-p38 (all from Sigma, St. Louis, Mo.). Rabbit antibodies against mouse ERK1, JNK1, and p38, and HRP-labeled second antibodies were purchased from Santa Cruz Biotechnology, and IL-1β, IL-6, and TNF-α ELISA kits from R&D Systems. ROS production assay, NO production assay, NF-κB reporter assay, ELISA, and Western blotting were performed as described previously.

Assay [3] concerns ROS and NO. The experiment in a line: Mouse FSGS model: superoxide anion (ROS), DHE and NO in renal tissue, serum, urine. The assay is classed as in vivo. As to conditions: days 14 and 28. Here is the method:
A progressive type of mouse FSGS model was used, particularly characterized by EPHLs, a key histopathology index of progression of FSGS, peri-glomerular inflammation, and progressive glomerular hyalinosis/sclerosis. The FSGS model was induced in 8-week-old male BALB/c mice (National Laboratory Animal Center, Taipei, Taiwan) by intravenous injection of a single dose of adriamycin (0.10 mg/10 g body weight) (Pfizer, New York, N.Y.) as described previously. […] Age- and sex-matched BALB/c mice were used as normal controls. Urine samples were collected in metabolic cages on days 3, 7, 14, 21, and 28. Renal cortical tissues and blood samples were collected when the mice were sacrificed and stored appropriately for further analysis. The concentration of urine protein was determined using BCA kits (Pierce, Rockford, Ill.) as described previously and normalized to urine creatinine (Cr) levels measured using kits (Wako Pure Chemical Industries, Osaka, Japan), as described previously. Serum levels of blood urea nitrogen (BUN) and Cr were determined using BUN kits and Cr kits (both from Fuji Dry-Chem Slide, Fuji Film Medical, Tokyo, Japan), as described previously. Superoxide anion levels in serum, urine, and kidney tissues were determined as described previously. The results were expressed as relative luminescence units (RLU) per 15 min per milliliter (i.e., RLU/15 min/ml) for serum and urine samples or per milligram dry weight (i.e., RLU/15 min/mg dry weight) for kidney tissues. In addition, renal superoxide anion levels were measured by dihydroethidium (DHE) binding, fluorescence being quantified by counting the percentage of the total nuclei that were positive per kidney cross section as described previously. NO levels in serum and urine were measured using NO detection kits (Abeam, Cambridge, Mass.) according to the manufacturer's instructions.

Consider `CC(C)=CCCC(C)=CC=O` (racemic) [Citral, 3,7-dimethyl-2,6-octadienal], for which, in assay [1] (FSGS+vehicle vs FSGS+Citral vs normal control mice, data not shown), the “mature form (p18 fragment) of renal caspase-8” value was “no detectable difference”. Also, the “renal apoptosis (TUNEL) in the glomerulus” value in assay [1] (day 28, p<0.005) is given as “significantly inhibited”. Besides, the “renal apoptosis (TUNEL) in the renal tubule” value in assay [1] (days 14 and 28) is given as “significantly inhibited”. For the same compound, the “mature form (p17 fragment) of caspase-3, renal levels” value in assay [1] (days 14 and 28, p<0.01) is given as “significantly inhibited”. For the same compound, the “mature form (p37 fragment) of caspase-9, renal levels” value in assay [1] (days 14 and 28, p<0.05) is on record as “suppressed”. Also, the “NF-κB transcriptional activity in LPS-stimulated macrophages” value in assay [2] is “reduced”. In assay [3] (p<0.01), the “renal DHE levels (in situ ROS)” value is given as “suppressed”. In assay [3] (vs FSGS+vehicle mice, p<0.01), the “superoxide anion levels in renal tissues” value is listed as “markedly decreased”, the “superoxide anion levels in serum” value is recorded as “markedly decreased” and the “superoxide anion levels in urine” value is “markedly decreased”. Further, in assay [3] (vs FSGS+vehicle, p<0.05), the “NO levels in serum” value was “significantly reduced” and the “NO levels in urine” value is reported as “significantly reduced”.
